1 molecule from article PMC5825103 (PLoS ONE, 2018) can be followed below.

Each structure is given as a SMILES string.

For one test, the target named is T1, PR-LBD (Homo sapiens, UniProt P06401).
T1 construct: PR-LBD (catalogue number 2341) were performed by Eurofins Cerep SA, France; purchased Eurofins Cerep SA, France 2341
T1 sequence (P06401 679-913 limits assumed): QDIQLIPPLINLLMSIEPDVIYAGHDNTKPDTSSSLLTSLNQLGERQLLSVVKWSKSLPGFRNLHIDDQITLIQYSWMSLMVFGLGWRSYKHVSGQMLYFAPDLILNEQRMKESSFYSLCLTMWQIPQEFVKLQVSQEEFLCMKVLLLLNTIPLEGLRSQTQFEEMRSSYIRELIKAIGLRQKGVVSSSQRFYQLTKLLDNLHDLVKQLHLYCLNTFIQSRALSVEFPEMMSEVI
As to the kind of experiment: filtration radioligand binding (Eurofins Cerep). The conditions noted are these: competition binding; ± SD.

For test [1], the system named is male Sprague Dawley rats on low salt diet. As to the kind of experiment: acute urinary electrolyte excretion in salt deprived rats. The test is classed as in vivo, rat. The note with it: 100 mg kg^-1 AZD9977 co-administered with 10 or 30 mg kg^-1 eplerenone. The method, then:
Experimental procedures to assess electrolytes effects in vivo were approved by the local ethics review committee on animal experiments in the Gothenburg region (EA 141-2010). […] Animals had environmental enrichment such as nest pads, nesting box, running ladder and aspen chew sticks. Rats were fed a low salt diet ([…] with 0.02% NaCl, […], Sweden) for 72h prior to dosing to increase endogenous aldosterone levels. […] Immediately following dosing, rats were placed in metabolic cages with free access to drinking water but no food. Urine was collected for 8 hours to determine total electrolyte (Na^+ and K^+) content as well as total urinary volume. Urine was collected at room temperature with no additives. Urine was analyzed for Na^+ and K^+ content on a Radiometer ABL 700 blood gas analyzer (Radiometer, Copenhagen, Denmark).

Protocol for PR-LBD: Filtration based radioligand binding assays for human GR-LBD (catalogue number 0469), AR-LBD (catalogue number 0933) and PR-LBD (catalogue number 2341) were performed by Eurofins Cerep SA, France.

In general, Ki refers to the equilibrium dissociation constant of an inhibitor or competing ligand from its target. The low end stands for a stronger hold on the target, the high end for a looser hold on the target. Turning to `CNC(=O)C[C@H]1COc2cc(F)ccc2N1C(=O)c1ccc2c(c1)NC(=O)CO2` [AZD9977, (S)-2-(7-Fluoro-4-(3-oxo-3,4-dihydro-2H-benzo[b][1, 4]oxazine-6-carbonyl)-3,4-dihydro-2H-benzo[b][1, 4]oxazin-3-yl)-N-methylacetamide], the Ki on PR-LBD was 25.1 µM. In addition, the “Na^+ excretion caused by eplerenone” value in test [1] is “attenuated the Na^+ excretion caused by eplerenone”.
